Reference: ChEMBL document CHEMBL3885881, “DrugMatrix”

Species on record: Rattus norvegicus
Test: DrugMatrix - Regimen: Daily Repeat
Assay type: toxicity, organism-based, Sprague-Dawley
Design: regimen Daily Repeat, gender Male, age 6-8 weeks
Conditions: in vivo, iv, vehicle 100 % SALINE; for ABSOLUTE BASOPHIL / ABSOLUTE EOSINOPHIL / ABSOLUTE LYMPHOCYTE / ABSOLUTE MONOCYTE / ABSOLUTE SEGMENTED NEUTROPHIL / BASOPHIL / EOSINOPHIL / ERYTHROCYTE COUNT / HEMATOCRIT / HEMOGLOBIN / LEUKOCYTE COUNT / LYMPHOCYTE / MEAN CORPUSCULAR HEMOGLOBIN / MEAN CORPUSCULAR HEMOGLOBIN CONCENTRATION / MEAN CORPUSCULAR VOLUME / MONOCYTE / NEUTROPHIL / NUCLEATED RED BLOOD CELLS / PLATELET COUNT: tissue Blood; for ALANINE AMINOTRANSFERASE / ALBUMIN / ALKALINE PHOSPHATASE / ASPARTATE AMINOTRANSFERASE / BLOOD UREA NITROGEN / CARBON DIOXIDE / CHLORIDE / CHOLESTEROL / CREATINE PHOSPHOKINASE / CREATININE / GLUCOSE / LACTATE DEHYDROGENASE / LIPASE / PHOSPHORUS / POTASSIUM / SODIUM / TOTAL BILIRUBIN / TOTAL PROTEIN / URIC ACID: tissue Plasma
[1] = 0 mg/kg, 72 h, dose level Control, time 3 day
[2] = 0 mg/kg, 120 h, dose level Control, time 5 day
[3] = 3 mg/kg, 72 h, dose level Low, time 3 day

## O=c1[nH]c(=O)n([C@H]2C[C@H](O)[C@@H](CO)O2)cc1F [FLOXURIDINE]
[1]
  ABSOLUTE BASOPHIL: 0 CELLS/uL
  ABSOLUTE EOSINOPHIL: 0 CELLS/uL
  ABSOLUTE LYMPHOCYTE: 11636.83 CELLS/uL
  ABSOLUTE MONOCYTE: 159 CELLS/uL
  ABSOLUTE SEGMENTED NEUTROPHIL: 1170.83 CELLS/uL
  BASOPHIL: 0%
  EOSINOPHIL: 0%
  ERYTHROCYTE COUNT: 5.46 x10E6/uL
  HEMATOCRIT: 34.05%
  HEMOGLOBIN: 13.58 G/DL
  LEUKOCYTE COUNT: 12.97 x10E3/uL
  LYMPHOCYTE: 89.67%
  MEAN CORPUSCULAR HEMOGLOBIN: 24.87 pg
  MEAN CORPUSCULAR HEMOGLOBIN CONCENTRATION: 39.9 G/DL
  MEAN CORPUSCULAR VOLUME: 62.3 fL
  MONOCYTE: 1.33%
  NEUTROPHIL: 9%
  NUCLEATED RED BLOOD CELLS: 0.17 /100WBC
  PLATELET COUNT: 824 x10E3/uL
  ALANINE AMINOTRANSFERASE: 64.83 u/L
  ALBUMIN: 4.08 G/DL
  ALKALINE PHOSPHATASE: 421 u/L
  ASPARTATE AMINOTRANSFERASE: 116.83 u/L
  BLOOD UREA NITROGEN: 16.83 mg/dL
  CARBON DIOXIDE: 28 mmol/L
  CHLORIDE: 101.33 MEQ/L
  CHOLESTEROL: 74.17 mg/dL
  CREATINE PHOSPHOKINASE: 748.5 u/L
  CREATININE: 0.22 mg/dL
  GLUCOSE: 152.83 mg/dL
  LACTATE DEHYDROGENASE: 578.5 u/L
  LIPASE: 9.83 u/L
  PHOSPHORUS: 11.63 mg/dL
  POTASSIUM: 5.93 MEQ/L
  SODIUM: 142.1 MEQ/L
  TOTAL BILIRUBIN: 0.17 mg/dL
  TOTAL PROTEIN: 5.77 G/DL
  URIC ACID: 1.43 mg/dL
[2]
  ABSOLUTE BASOPHIL: 0 CELLS/uL
  ABSOLUTE EOSINOPHIL: 159.17 CELLS/uL
  ABSOLUTE LYMPHOCYTE: 12267.5 CELLS/uL
  ABSOLUTE MONOCYTE: 30 CELLS/uL
  ABSOLUTE SEGMENTED NEUTROPHIL: 1160 CELLS/uL
  BASOPHIL: 0%
  EOSINOPHIL: 1.17%
  ERYTHROCYTE COUNT: 5.52 x10E6/uL
  HEMATOCRIT: 34.3%
  HEMOGLOBIN: 13.73 G/DL
  LEUKOCYTE COUNT: 13.62 x10E3/uL
  LYMPHOCYTE: 90.5%
  MEAN CORPUSCULAR HEMOGLOBIN: 24.92 pg
  MEAN CORPUSCULAR HEMOGLOBIN CONCENTRATION: 40.07 G/DL
  MEAN CORPUSCULAR VOLUME: 62.17 fL
  MONOCYTE: 0.17%
  NEUTROPHIL: 8.17%
  NUCLEATED RED BLOOD CELLS: 0.17 /100WBC
  PLATELET COUNT: 1261.83 x10E3/uL
  ALANINE AMINOTRANSFERASE: 58.67 u/L
  ALBUMIN: 4.15 G/DL
  ALKALINE PHOSPHATASE: 364.67 u/L
  ASPARTATE AMINOTRANSFERASE: 105.33 u/L
  BLOOD UREA NITROGEN: 17.67 mg/dL
  CARBON DIOXIDE: 26.5 mmol/L
  CHLORIDE: 101.67 MEQ/L
  CHOLESTEROL: 63 mg/dL
  CREATINE PHOSPHOKINASE: 480.67 u/L
  CREATININE: 0.17 mg/dL
  GLUCOSE: 144.67 mg/dL
  LACTATE DEHYDROGENASE: 540.33 u/L
  LIPASE: 10.33 u/L
  PHOSPHORUS: 11.52 mg/dL
  POTASSIUM: 6.12 MEQ/L
  SODIUM: 142.45 MEQ/L
  TOTAL BILIRUBIN: 0.18 mg/dL
  TOTAL PROTEIN: 5.73 G/DL
  URIC ACID: 1.48 mg/dL
[3]
  ABSOLUTE BASOPHIL: 0 CELLS/uL
  ABSOLUTE EOSINOPHIL: 0 CELLS/uL
  ABSOLUTE LYMPHOCYTE: 9392.67 CELLS/uL
  ABSOLUTE MONOCYTE: 101.67 CELLS/uL
  ABSOLUTE SEGMENTED NEUTROPHIL: 505.67 CELLS/uL
  BASOPHIL: 0%
  EOSINOPHIL: 0%
  ERYTHROCYTE COUNT: 5.12 x10E6/uL
  HEMATOCRIT: 32.33%
  HEMOGLOBIN: 13.1 G/DL
  LEUKOCYTE COUNT: 10 x10E3/uL
  LYMPHOCYTE: 94%
  MEAN CORPUSCULAR HEMOGLOBIN: 25.7 pg
  MEAN CORPUSCULAR HEMOGLOBIN CONCENTRATION: 40.53 G/DL
  MEAN CORPUSCULAR VOLUME: 63.17 fL
  MONOCYTE: 1%
  NEUTROPHIL: 5%
  NUCLEATED RED BLOOD CELLS: 0 /100WBC
  PLATELET COUNT: 833.67 x10E3/uL
  ALANINE AMINOTRANSFERASE: 54.67 u/L
  ALBUMIN: 4.4 G/DL
  ALKALINE PHOSPHATASE: 391.67 u/L
  ASPARTATE AMINOTRANSFERASE: 100 u/L
  BLOOD UREA NITROGEN: 17 mg/dL
  CARBON DIOXIDE: 29.67 mmol/L
  CHLORIDE: 101 MEQ/L
  CHOLESTEROL: 79 mg/dL
  CREATINE PHOSPHOKINASE: 755 u/L
  CREATININE: 0.22 mg/dL
  GLUCOSE: 171 mg/dL
  LACTATE DEHYDROGENASE: 240.33 u/L
  LIPASE: 9 u/L
  PHOSPHORUS: 10.77 mg/dL
  POTASSIUM: 6.26 MEQ/L
  SODIUM: 142.13 MEQ/L
  TOTAL BILIRUBIN: 0.2 mg/dL
  TOTAL PROTEIN: 6.17 G/DL
  URIC ACID: 2.23 mg/dL
